Where a name gives a salt, the structure may show the parent alone. Read-outs that look alike come from different tables or passages of the source.
Assays:
[1] = molecular target: T1, recombinant guanylate cyclase reporter cell line (Rattus norvegicus, UniProt P19686+P20595); assay: Action on recombinant guanylate cyclase reporter cell line; format: cell-based; settings: in some cases mean values from individual determinations
T1 construct: expressed in transfected cells; host or cells: recombinant reporter cell line
T1 sequence (P19686 1-690): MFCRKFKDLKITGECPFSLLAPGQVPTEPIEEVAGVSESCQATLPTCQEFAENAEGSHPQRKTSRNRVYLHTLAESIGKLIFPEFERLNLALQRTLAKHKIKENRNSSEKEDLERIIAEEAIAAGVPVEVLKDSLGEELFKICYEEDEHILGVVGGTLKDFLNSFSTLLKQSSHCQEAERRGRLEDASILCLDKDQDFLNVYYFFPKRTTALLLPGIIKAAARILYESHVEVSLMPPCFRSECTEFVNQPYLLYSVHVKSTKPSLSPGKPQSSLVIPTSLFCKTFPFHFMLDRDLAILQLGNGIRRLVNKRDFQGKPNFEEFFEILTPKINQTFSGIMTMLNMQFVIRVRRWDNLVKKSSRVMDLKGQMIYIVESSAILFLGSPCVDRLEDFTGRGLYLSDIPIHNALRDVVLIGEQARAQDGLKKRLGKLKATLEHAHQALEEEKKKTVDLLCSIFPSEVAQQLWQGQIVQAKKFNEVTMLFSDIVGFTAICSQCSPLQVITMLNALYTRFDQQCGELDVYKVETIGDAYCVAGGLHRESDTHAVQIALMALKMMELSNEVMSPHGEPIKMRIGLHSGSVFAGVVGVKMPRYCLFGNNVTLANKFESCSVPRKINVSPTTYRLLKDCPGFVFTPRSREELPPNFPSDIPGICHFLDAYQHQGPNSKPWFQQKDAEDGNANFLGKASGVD
T1 sequence (P20595 1-619): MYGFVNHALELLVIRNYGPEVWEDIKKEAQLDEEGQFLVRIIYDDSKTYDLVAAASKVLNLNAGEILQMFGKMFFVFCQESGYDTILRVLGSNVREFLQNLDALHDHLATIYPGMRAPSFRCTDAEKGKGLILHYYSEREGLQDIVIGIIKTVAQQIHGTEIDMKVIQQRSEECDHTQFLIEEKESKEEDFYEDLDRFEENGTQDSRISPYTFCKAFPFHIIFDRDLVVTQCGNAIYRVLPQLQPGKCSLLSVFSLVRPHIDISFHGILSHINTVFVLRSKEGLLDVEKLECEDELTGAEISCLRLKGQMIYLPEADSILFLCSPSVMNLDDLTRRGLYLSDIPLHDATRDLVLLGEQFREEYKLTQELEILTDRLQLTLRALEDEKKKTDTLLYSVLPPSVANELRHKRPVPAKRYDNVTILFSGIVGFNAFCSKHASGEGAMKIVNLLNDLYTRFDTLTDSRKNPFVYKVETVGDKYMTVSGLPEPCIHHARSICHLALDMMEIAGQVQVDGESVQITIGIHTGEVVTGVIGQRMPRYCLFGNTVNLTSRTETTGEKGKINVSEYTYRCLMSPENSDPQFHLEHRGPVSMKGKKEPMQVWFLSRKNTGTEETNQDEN
In short: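 Each compound is applied to a cell line engineered with a reporter for recombinant guanylate cyclase. The minimal effective concentration is then noted, in part as a mean across separate determinations.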

[2] = Determination of pharmacokinetic parameters following intravenous and oral administration (rats); format: in vivo, male Wistar rats; settings: intravenous administration in rats
Method: B-6. Determination of Pharmacokinetic Parameters Following Intravenous and Oral Administration
The pharmacokinetic parameters of the compounds according to the invention are determined in male CD-1 mice, male Wistar rats and female beagles. Intravenous administration in the case of mice and rats is carried out by means of a species-specific plasma/DMSO formulation, and in the case of dogs by means of a water/PEG400/ethanol formulation. In all species, oral administration of the dissolved substance is performed via gavage, based on a water/PEG400/ethanol formulation. The taking of blood from rats is simplified by inserting a silicone catheter into the right Vena jugularis externa prior to substance administration. The operation is carried out at least one day prior to the experiment with […] and administration of an analgesic (atropin/Rimadyl (3/1) 0.1 ml s.c.). The blood is taken (generally more than 10 time points) within a time window including terminal time points of at least 24 to a maximum of 72 hours after substance administration. When the blood is taken, it is passed into heparinised tubes. Then the blood plasma is obtained by centrifugation and is optionally stored at −20° C. until further processing.
An internal standard (which may also be a chemically unrelated substance) is added to the samples of the compounds according to the invention, calibration samples and qualifiers, and there follows protein precipitation by means of excess acetone. Addition of a buffer solution matched to the LC conditions, and subsequent vortexing, is followed by centrifugation at 1000 g. The supernatant is analysed by LC-MS/MS using C18 reversed-phase columns and variable mobile phase mixtures. The substances are quantified via the peak heights or areas from extracted ion chromatograms of specific selected ion monitoring experiments.
The plasma concentration/time plots determined are used to calculate the pharmacokinetic parameters such as AUC, Cmax, t1/2 (terminal half life), F (bioavailability), MRT (mean residence time) and CL (clearance), using a validated pharmacokinetic calculation program.
Since the substance quantification is carried out in plasma, it is necessary to determine the blood/plasma distribution of the substance in order to be able to adjust the pharmacokinetic parameters correspondingly. For this purpose, a defined amount of substance is incubated in heparinized whole blood of the species in question in a rocking roller mixture for 20 min. After centrifugation at 1000 g, the plasma concentration is measured (by means of LC-MS/MS; see above) and determined by calculating the ratio of the Cblood/Cplasma value.

[3] = male, Wistar, rat, plasma, iv, read-out: MRT

| SMILES | MEC (minimal effective concentration) [1] | AUCnorm [2] | CLblood [2] | MRT [2] | t1/2 [2] | half-life ([2]; male, Wistar, rat, plasma, iv) | MRT [2, 3] |
| --- | --- | --- | --- | --- | --- | --- | --- |
| CCCC(C)(N)CNC(=O)c1c(C)nc2c(OCc3c(F)ccc(F)c3F)cc(C)cn12 (single isomer, unassigned) [Example 304, ent-N-(2-amino-2-methylpentyl)-2,6-dimethyl-8-[(2,3,6-trifluorobenzyl)oxy]imidazo[1,2-a]pyridine-3-carboxamide] | 0.10 µM | 0.34 kg·h/L | 2.27 L/h/kg | 9.4 h | 6.2 h | – | – |
| Cc1cc(OCc2c(F)ccc(F)c2F)c2nc(C)c(C(=O)NCC(C)(N)CF)n2c1 (single isomer, unassigned; enantiomer a) [Example 285, ent-N-(2-amino-3-fluoro-2-methylpropyl)-2,6-dimethyl-8-[(2,3,6-trifluorobenzyl)oxy]imidazo[1,2-a]pyridine-3-carboxamide (Enantiomer A)] | 0.3 µM | 0.54 kg·h/L | 1.02 L/h/kg | – | – | 3.6 h | 4.4 h |
| CCCC(C)(N)CNC(=O)c1c(C)nc2c(OCc3c(F)ccc(F)c3F)cc(C)cn12 (single isomer, unassigned) [Example 295, ent-N-(2-amino-2-methylpentyl)-2,6-dimethyl-8-[(2,3,6-trifluorobenzyl)oxy]imidazo[1,2-a]pyridine-3-carboxamide] | 0.10 µM | 0.56 kg·h/L | 1.23 L/h/kg | – | – | 6.6 h | 8.8 h |
| Cc1cc(OCc2c(F)ccc(F)c2F)c2nc(C)c(C(=O)NCC(C)(N)CF)n2c1 (single isomer, unassigned; enantiomer b) [Example 286, ent-N-(2-amino-3-fluoro-2-methylpropyl)-2,6-dimethyl-8-[(2,3,6-trifluorobenzyl)oxy]imidazo[1,2-a]pyridine-3-carboxamide (Enantiomer B)] | 0.1 µM | 0.82 kg·h/L | 1.39 L/h/kg | 4.5 h | 3.8 h | – | – |
| Cc1cc(OCc2c(F)ccc(F)c2F)c2nc(C)c(C(=O)NCC(C)(N)CCC(F)(F)F)n2c1 (single isomer, unassigned) [Example 410, ent-N-(2-amino-5,5,5-trifluoro-2-methylpentyl)-2,6-dimethyl-8-[(2,3,6-trifluorobenzyl)oxy]imidazo[1,2-a]pyridine-3-carboxamide] | 0.10 µM | 0.21 kg·h/L | 2.77 L/h/kg | 5.4 h | – | 4.3 h | – |
| CCC(C)(N)CNC(=O)c1c(C)nc2c(OCc3c(F)ccc(F)c3F)cc(C)cn12 (single isomer, unassigned; enantiomer a) [Example 274, ent-N-(2-Amino-2-methylbutyl)-2,6-dimethyl-8-[(2,3,6-trifluorobenzyl)oxy]imidazo[1,2-a]-pyridine-3-carboxamide (Enantiomer A)] | 0.10 µM | 1.29 kg·h/L | 0.69 L/h/kg | – | – | 5.8 h | 8.4 h |
| Cc1cc(OCc2c(F)cccc2F)c2nc(C)c(C(=O)NCC(C)(N)CF)n2c1 (racemic) [Example 282, rac-N-(2-amino-3-fluoro-2-methylpropyl)-8-[(2,6-difluorobenzyl)oxy]-2,6-dimethylimidazo[1,2-a]pyridine-3-carboxamide Formate] | 0.3 µM | 0.73 kg·h/L | 1.41 L/h/kg | – | – | 4.5 h | 5.7 h |
| Cc1cc(OCc2c(F)cccc2F)c2nc(C)c(C(=O)NCC(C)(N)CCC(F)(F)F)n2c1 (single isomer, unassigned) [Example 409, ent-N-(2-amino-5,5,5-trifluoro-2-methylpentyl)-8-[(2,6-difluorobenzyl)oxy]-2,6-dimethylimidazo[1,2-a]pyridine-3-carboxamide] | 0.03 µM | 0.28 kg·h/L | 2.15 L/h/kg | 7.4 h | 5.8 h | – | – |
| CCC(C)(N)CNC(=O)c1c(C)nc2c(OCc3c(F)cccc3F)cc(Cl)cn12 (single isomer, unassigned) [Example 194, ent-N-(2-Amino-2-methylbutyl)-6-chloro-8-[(2,6-difluorobenzyl)oxy]-2-methylimidazo[1,2-a]-pyridine-3-carboxamide] | 0.10 µM | 2.06 kg·h/L | 0.48 L/h/kg | – | – | 16.8 h | 24.4 h |
| Cc1nc2c(OCc3c(F)cccc3F)cccn2c1C(=O)NC(CN)c1ccc(F)cc1 (single isomer, unassigned; enantiomer b) [Example 10, ent-N-[2-Amino-1-(4-fluorophenyl)ethyl]-8-[(2,6-difluorobenzyl)oxy]-2-methylimidazo[1,2-a]-pyridine-3-carboxamide (Enantiomer B)] | 0.30 µM | 2.26 kg·h/L | 0.74 L/h/kg | – | – | 4.8 h | 6.9 h |
| CCC(C)(N)CNC(=O)c1c(C)nc2c(OCc3c(F)cccc3F)cc(C(F)F)cn12 (single isomer, unassigned; enantiomer a) [Example 287, ent-N-(2-amino-2-methylbutyl)-8-[(2,6-difluorobenzyl)oxy]-6-(difluoromethyl)-2-methylimidazo[1,2-a]pyridine-3-carboxamide Formate (Enantiomer A)] | 0.3 µM | 0.66 kg·h/L | 1.76 L/h/kg | – | – | 5.4 h | 8.4 h |
| CCC(C)(N)CNC(=O)c1c(C)nc2c(OCc3c(F)ccc(F)c3F)cc(C)cn12 (single isomer, unassigned; enantiomer b) [Example 275, ent-N-(2-Amino-2-methylbutyl)-2,6-dimethyl-8-[(2,3,6-trifluorobenzyl)oxy]imidazo[1,2-a]-pyridine-3-carboxamide (Enantiomer B)] | 0.10 µM | 0.64 kg·h/L | 1.25 L/h/kg | 7.2 h | 4.1 h | – | – |
